The values that follow come from patent US4705900A, “Insecticidal alkenes” (Imperial Chemical Industries PLC, priority 1985, dated 1987).

The structures appear in SMILES notation. Some results are limits rather than exact numbers.

One data set concerns Tetranychus urticae. The data set can be described thus: mortality of red spider mites (TU), contact test. Conditions: Tetranychus urticae, 72 h, 500 ppm, French bean leaf, 3 days, read-out: grading of mortality, TU. Type of data set: in vivo, Tetranychus urticae (red spider mites - adult). As for the experimental part: (§1) The activity of the Product was determined using a variety of insect pests. The Product was used in the form of liquid preparations containing 500 or 100 parts per million (ppm) by weight of the Product. The preparations were made by dissolving the Product in acetone and diluting the solutions with water containing 0.01% by weight of a wetting agent sold under the trade name "LISSAPOL" NX until the liquid preparations contained the required concentration of the Product. "Lissapol" is a Registered Trade Mark.
(§2) The test procedure adopted with regard to each pest was basically the same and comprised supporting a number of the pests on a medium which was usually a host plant or a foodstuff on which the pests feed, and treating either or both the pests and the medium with the preparations. The mortality of the pests was then assessed at periods usually varying from one to three days after the treatment.
(§3) The results of the tests are given in Table IV for each of the Products, at the rate in parts per million given in the second column as a grading of mortality designated as A, B or C wherein A indicates 80-100% mortality or knockdown, B indicates 50-79% mortality or knockdown and C indicates less than 50% mortality or knockdown.
(§4) In Table IV the pest organism used is designated by a letter code and the pests species, the support medium or food, and the type and duration of test is given in Table III.
(red spider mites - adult)

A further data set has as its system Myzus persicae. The data set can be described thus: mortality of aphids (MP), contact test. The format is in vivo, Myzus persicae (aphids). As to conditions: 500 ppm, leaf, 2 days; for mortality at 500 ppm: Myzus persicae, 48 h, read-out: grading of mortality, MP. Here is the method: as §1, §2, §3, §4
The subject of a further data set is Nilaparvata lugens. The data set can be described thus: mortality of green leaf hopper (NL), contact test. Type of data set: in vivo, Nilaparvata lugens (brown planthopper). Conditions: 500 ppm, cabbage leaf, 6 days; for mortality at 500 ppm: Nilaparvata lugens, in Brassica oleracea, 144 h, read-out: grading of mortality, NL. As for the experimental part: as §1, §2, §3, §4

For data set [1], the system named is Musca domestica. Put plainly: knockdown of houseflies (MD/KD). Type of data set: in vivo, Musca domestica (houseflies - adults). Conditions: Musca domestica, 500 ppm, cotton wool/sugar, 4 hours, read-out: grading of knockdown, MD/KD. As for the experimental part: as §1, §2
In case of the species Musca domestica (housefly), additional tests to determine the knockdown effect of the compounds were performed.
as §3, §4

Data set [2] concerns Musca domestica. The data set can be described thus: mortality of houseflies (MD), contact test. Type of data set: in vivo, Musca domestica (houseflies - adults). As to conditions: Musca domestica, 24 h, 500 ppm, cotton wool/sugar, 1 day, read-out: grading of mortality, MD. Here is the method:
as §1, §2, §3, §4

The subject of the next data set is Blattella germanica. The data set can be described thus: mortality of cockroach nymphs (BG), residual test. Type of data set: in vivo, Blattella germanica (cockroach nymphs). As to conditions: Blattella germanica, 72 h, 500 ppm, plastic pot, 3 days, read-out: grading of mortality, BG. Here is the method: as §1, §2, §3, §4
The next data set deals with Heliothis viriscens. Put plainly: whole plant or invertebrate. Type of data set: in vivo, Heliothis viriscens (tobacco budworm). Conditions: in Gossypium hirsutum, 72 h, read-out: grading of mortality, HV. As for the experimental part:
as §1, §2, §3, §4

Another data set concerns Chilo partellurs. Put plainly: mortality of stem borers (CP), residual test. The format is in vivo, Chilo partellurs (Stem borers). Conditions: Chilo, 72 h, 500 ppm, oil seed rape leaf, 3 days, read-out: grading of mortality, CP. Here is the method:
as §1, §2, §3, §4

Another data set deals with Diabrotica balteata. Put plainly: mortality of rootworm larvae (DB), residual test. Type of data set: in vivo, Diabrotica balteata (rootworm larvae). As to conditions: 500 ppm, filter paper/maize seed, 3 days; for mortality at 500 ppm: Diabrotica balteata, in Zea mays, 72 h, read-out: grading of mortality, DB. Here is the method:
as §1, §2, §3, §4

Take `CC(C)(C=Cc1ccc(Cl)cc1)COCc1cccc(Oc2ccccc2)c1` [Compound 1, 3,3-Dimethyl-1-(4-chlorophenyl)-4-(3-phenoxybenzyloxy)but-1-ene]: the mortality at 500 ppm in the data set on Tetranychus urticae was 50 to 79%; in the data set with Musca domestica [2], 50 to 79%; in the data set with Blattella germanica, less than 50%; in the data set with Heliothis viriscens it was 80 to 100%; in the data set on Chilo partellurs, 80 to 100%. Moreover, in the data set on Myzus persicae (2880 min), the “grading of mortality, MP” value is recorded as “C (C indicates less than 50% mortality or knockdown)”. The “grading of mortality, NL” value with Nilaparvata lugens (8640 min) is recorded as “B (B indicates 50-79% mortality or knockdown)”. In addition, the pest or weed control at 500 ppm in the data set on Musca domestica [1] is 80 to 100%. Also, the “grading of mortality, DB” value in the data set with Diabrotica balteata (4320 min) was “C (C indicates less than 50% mortality or knockdown)”.
With `CC(C)(C=Cc1cccc(F)c1)COCc1cccc(Oc2ccccc2)c1` [Compound 17, 3,3-Dimethyl-1-(3-fluorophenyl)-4-(3-phenoxybenzyloxy)but-1-ene], the mortality at 500 ppm is less than 50% in the data set with Tetranychus urticae; less than 50% with Myzus persicae; less than 50% with Nilaparvata lugens; less than 50% with Musca domestica [2]; less than 50% with Blattella germanica; 80 to 100% with Heliothis viriscens. In addition, the results for the mortality at 500 ppm with Chilo partellurs and with Diabrotica balteata were 80 to 100% and less than 50%, respectively. In the data set on Musca domestica [1], the pest or weed control at 500 ppm was less than 50%.
For `CCOc1ccc(/C=C/C(C)(C)COCc2cccc(Oc3ccccc3)c2)cc1` [Compound 4, 3,3-Dimethyl-1-(4-ethoxyphenyl)-4-(3-phenoxybenzyloxy)but-1-ene], the mortality at 500 ppm in the data set on Tetranychus urticae, in the data set with Myzus persicae, in the data set with Nilaparvata lugens, in the data set with Musca domestica [2], in the data set on Blattella germanica and in the data set with Heliothis viriscens was less than 50% each time. Also, the mortality at 500 ppm in the data set with Chilo partellurs and in the data set with Diabrotica balteata was less than 50% in each case. For the same molecule, in the data set on Musca domestica [1], the pest or weed control at 500 ppm is less than 50%.
As for `CC(C)(/C=C/c1ccc(C(F)(F)F)cc1)COCc1cccc(Oc2ccccc2)c1` [Compound 12, 3,3-dimethyl-1-(4-trifluoromethylphenyl)-4-(3-phenoxybenzyloxy)but-1-ene], the mortality at 500 ppm is less than 50% in the data set on Tetranychus urticae; 50 to 79% in the data set on Myzus persicae; 80 to 100% in the data set with Nilaparvata lugens; less than 50% with Musca domestica [2]; 50 to 79% with Blattella germanica; less than 50% in the data set on Heliothis viriscens. Besides, the mortality at 500 ppm was 80 to 100% in the data set on Chilo partellurs and less than 50% in the data set on Diabrotica balteata. Also, in the data set on Musca domestica [1], the pest or weed control at 500 ppm is less than 50%.
